From US20070167499A1, “Biaryl linked hydroxamates: preparation and pharmaceutical applications” (A*BIO Pte Ltd., priority 2003, published 2007)

Key:
NCI H552 = assay: Cell-based proliferation assay for determination of GI50 values, lung cancer cell line; conditions: Homo sapiens; 96 h treatment, cyquant cell proliferation assay; read-out: Cellular activities GI50, NCI H552
Protocol: (§1) Cell-based Proliferation assay for determination of GI50 values
(§2) Three different cancer cell lines were obtained from ATCC: Human colon cancer cell line (Colo205), human breast cancer cell lines (MDA-MB435), and human lung cancer cell line (NCl-H522). Colo205 cells and NCl-H522 were cultivated in RPMI 1640 containing 2 mM
(§3) L-Glutamine, 5% FBS, 1.0 mM Na Pyruvate. MDA-MB435 cells were cultivated in DMEM containing 2 mM L-Glutamine, 5% FBS. Colo205 cells were seeded in 96-wells plate at 2000 and 5000 cells per well respectively. MDA-MB435 and NCl-H522 cells were seeded in 96-wells plate at 6000 cells per well. The plates were incubated at 37° C., 5% CO2, for 24 h. Cells were treated with compounds at various concentrations for 96 h. Cell growth was then monitored using cyquant cell proliferation assay (Invitrogen Pte Ltd). Dose response curves were plotted to determine GI50 values for the compounds using XL-fit (ID Business Solution, Emeryville, Calif.).

Colo205 = assay: Cell-based proliferation assay for determination of GI50 values, colon cancer cell line; conditions: Homo sapiens, COLO 205; 96 h treatment, cyquant cell proliferation assay; read-out: Cellular activities GI50, Colo205
Protocol: as §1, §2, §3

GI50 (Colo205): 5.47 µM
Structure (SMILES): CC(C)(C)OC(=O)N1CCN(c2ccc(C(=O)Nc3nc(-c4ccc(CC(=O)NO)s4)cs3)cc2)CC1 [Example 9]
GI50 (NCI H552): 3.01 µM
